Results published in patent US20180320217A1, “METHODS FOR SAMPLING AND MEASURING ORAL LAVAGE PROTEINS” (The Procter & Gamble Company, priority 2017, published 2018).
Where “and” joins values, the source holds several entries; their conditions need not be identical. Equal values may be shown once. Where a name gives a salt, the structure may show the parent alone.

Legend:
[1] = tested on: oral lavage; assay: Formation of formazan dyes: oral lavage, malate and diaphorase (TABLE 12); format: biochemical, human; conditions: oral lavage, malate and diaphorase
[2] = tested on: Malate dehydrogenase and diaphorase; assay: Formation of formazan dyes: Malate dehydrogenase, diaphorase and malate (TABLE 10); format: biochemical, pig heart
[3] = tested on: oral lavage; assay: Formation of formazan dyes: oral lavage and diaphorase, not malate (TABLE 11); format: biochemical, human
[4] = tested on: diaphorase; assay: Formation of formazan dyes: only diaphorase and malate (TABLE 14); format: biochemical, Clostridium kluyveri; conditions: mean of three experiments
[5] = biological target: T1, Malate dehydrogenase (Sus scrofa, UniProt P00346); assay: Formation of formazan dyes: Malate dehydrogenase, malate and 1-Methoxy PMS (TABLE 18); format: biochemical, pig heart; parameters: L-malate dehydrogenase (pig heart); purchased Sigma-Aldrich 10127248001 / 10127914001
T1 sequence (P00346 25-338): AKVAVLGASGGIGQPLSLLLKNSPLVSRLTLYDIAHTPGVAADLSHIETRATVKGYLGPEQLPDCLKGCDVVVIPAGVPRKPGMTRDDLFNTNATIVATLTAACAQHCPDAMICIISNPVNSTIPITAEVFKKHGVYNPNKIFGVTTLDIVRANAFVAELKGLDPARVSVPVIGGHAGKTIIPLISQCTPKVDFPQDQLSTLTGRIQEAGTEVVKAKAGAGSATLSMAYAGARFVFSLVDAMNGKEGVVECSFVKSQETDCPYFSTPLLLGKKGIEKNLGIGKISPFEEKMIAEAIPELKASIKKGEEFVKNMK

[6] = tested on: Malate dehydrogenase and diaphorase; assay: Formation of formazan dyes: Malate dehydrogenase and diaphorase, absence of malate (TABLE 9); format: biochemical, pig heart
[7] = Formation of formazan dyes: control buffer and 1-Methoxy PMS, absence of malate (TABLE 21); format: biochemical
[8] = Formation of formazan dyes: NADH, malate and 1-methoxy PMS (TABLE 16); format: biochemical
[9] = tested on: diaphorase; assay: Formation of formazan dyes: only diaphorase, not malate (TABLE 13); format: biochemical, Clostridium kluyveri; conditions: mean of three experiments
[10] = tested on: diaphorase; assay: Formation of formazan dyes: NADH, diaphorase and malate (TABLE 8); format: biochemical, Clostridium kluyveri; conditions: NADH, diaphorase and malate
[11] = biological target: T1, Malate dehydrogenase; assay: Formation of formazan dyes: Malate dehydrogenase and 1-Methoxy PMS, absence of malate (TABLE 17); format: biochemical, pig heart; parameters: L-malate dehydrogenase (pig heart); purchased Sigma-Aldrich 10127248001 / 10127914001
[12] = Formation of formazan dyes: control buffer, malate and 1-Methoxy PMS (TABLE 22); format: biochemical
[13] = tested on: diaphorase; assay: Formation of formazan dyes: NADH and diaphorase, absence of malate (TABLE 7); format: biochemical, Clostridium kluyveri; conditions: NADH and diaphorase, absence of malate

For COc1cc([N+](=O)[O-])c(S(=O)(=O)[O-])cc1-n1nc(C(=O)Nc2ccccc2)n[n+]1-c1cc(S(=O)(=O)O)c([N+](=O)[O-])cc1OC [XTT, 2,3-Bis(2-methoxy-4-nitro-5-sulfophenyl)-2H-tetrazolium-5-carboxanilide inner salt], the “Formation of formazan dyes, absorbance, Means 0 h” value (shortened to “Formation … Means 0 h”) ([1]; 0 h) was 0.75, the “Formation of formazan dyes, absorbance, Means 1 h” value (“Formation … Means 1 h” below) ([1]; 1 h) was 0.88 and the “Formation of formazan dyes, absorbance, Means 2 h” value (from here on “Formation … Means 2 h”) ([1]; 2 h) was 0.94. The “Formation of formazan dyes, absorbance, Means 3 h” value (shortened to “Formation … Means 3 h”) ([1]; 3 h) was 0.98, the “Formation of formazan dyes, absorbance, Means 4 h” value (“Formation … Means 4 h” below) ([1]; 4 h) was 1.19 and the “Formation of formazan dyes, absorbance, Means 6 h” value (from here on “Formation … Means 6 h”) ([1]; 6 h) was 1.41. For the same compound, the “Formation of formazan dyes, absorbance, Means 8 h” value (shortened to “Formation … Means 8 h”) ([1]; 8 h) was 1.73, the “Formation of formazan dyes, absorbance, Means 10 h” value (“Formation … Means 10 h” below) ([1]; 10 h) was 1.90 and the “Formation of formazan dyes, absorbance, Means 12 h” value (shortened to “Formation … Means 12 h”) ([1]; 12 h) was 2.08. The “Formation … Means 0 h” value ([2]; Malate dehydrogenase, diaphorase and malate, 0 h) was 1.21, the “Formation … Means 1 h” value ([2]; Malate dehydrogenase, diaphorase and malate, 1 h) was 1.98 and the “Formation … Means 2 h” value ([2]; Malate dehydrogenase, diaphorase and malate, 2 h) was 2.41. The “Formation … Means 3 h” value ([2]; Malate dehydrogenase, diaphorase and malate, 3 h) was 2.71, the “Formation … Means 4 h” value ([2]; Malate dehydrogenase, diaphorase and malate, 4 h) was 3.02 and the “Formation … Means 6 h” value ([2]; Malate dehydrogenase, diaphorase and malate, 6 h) was 3.54. The “Formation … Means 8 h” value ([2]; Malate dehydrogenase, diaphorase and malate, 8 h) was 3.86, the “Formation … Means 10 h” value ([2]; Malate dehydrogenase, diaphorase and malate, 10 h) was 3.90 and the “Formation … Means 12 h” value ([2]; Malate dehydrogenase, diaphorase and malate, 12 h) was 3.80. For the same compound, the “conversion to reduced formazan dyes” value ([2]; malate dehydrogenase, diaphorase and malate (TABLE 10)) was “converted to reduced formazan dyes in a time-dependent manner”, the “Formation … Means 0 h” value ([3]; oral lavage and diaphorase, not malate, 0 h) was 0.80 and the “Formation … Means 1 h” value ([3]; oral lavage and diaphorase, not malate, 1 h) was 0.98. For the same compound, the “Formation … Means 2 h” value ([3]; oral lavage and diaphorase, not malate, 2 h) was 1.04, the “Formation … Means 3 h” value ([3]; oral lavage and diaphorase, not malate, 3 h) was 0.99 and the “Formation … Means 4 h” value ([3]; oral lavage and diaphorase, not malate, 4 h) was 1.18. For the same compound, the “Formation … Means 6 h” value ([3]; oral lavage and diaphorase, not malate, 6 h) was 1.24, the “Formation … Means 8 h” value ([3]; oral lavage and diaphorase, not malate, 8 h) was 1.26 and the “Formation … Means 10 h” value ([3]; oral lavage and diaphorase, not malate, 10 h) was 1.27. The “Formation … Means 12 h” value ([3]; oral lavage and diaphorase, not malate, 12 h) was 1.28, the “reduction to formazan dyes by pooled oral lavage” value ([3]; pooled oral lavage of high bleeder group, diaphorase, no added malate (TABLE 11)) was “changed to formazan dyes in a significant amount” and the “Absorbance, formation of formazan dyes (Means)” value (“Absorbance, formation” for short) ([4]; 0 h) was 0.39. The “Absorbance, formation” value ([4]; 1 h) was 0.45, the “Absorbance, formation” value ([4]; 2 h) was 0.48 and the “Absorbance, formation” value ([4]; 3 h) was 0.53. The “Absorbance, formation” value ([4]; 4 h) was 0.52, the “Absorbance, formation” value ([4]; 6 h) was 0.57 and the “Absorbance, formation” value ([4]; 8 h) was 0.63. For the same compound, the “Absorbance, formation” value ([4]; 10 h) was 0.69, the “Absorbance, formation” value ([4]; 12 h) was 0.73 and the “Absorbance, formation” value [5] was 2.09 and 3.28 and 3.71 and 3.96 and 4.00. The “Formation … Means 0 h” value ([6]; Malate dehydrogenase and diaphorase, absence of malate, 0 h) was 0.39, the “Formation … Means 1 h” value ([6]; Malate dehydrogenase and diaphorase, absence of malate, 1 h) was 0.44 and the “Formation … Means 2 h” value ([6]; Malate dehydrogenase and diaphorase, absence of malate, 2 h) was 0.46. For the same compound, the “Formation … Means 3 h” value ([6]; Malate dehydrogenase and diaphorase, absence of malate, 3 h) was 0.50, the “Formation … Means 4 h” value ([6]; Malate dehydrogenase and diaphorase, absence of malate, 4 h) was 0.50 and the “Formation … Means 6 h” value ([6]; Malate dehydrogenase and diaphorase, absence of malate, 6 h) was 0.54. The “Formation … Means 8 h” value ([6]; Malate dehydrogenase and diaphorase, absence of malate, 8 h) was 0.57, the “Formation … Means 10 h” value ([6]; Malate dehydrogenase and diaphorase, absence of malate, 10 h) was 0.58 and the “Formation … Means 12 h” value ([6]; Malate dehydrogenase and diaphorase, absence of malate, 12 h) was 0.66. The “reduction of tetrazolium dye in the absence of substrate malate” value ([6]; malate dehydrogenase and diaphorase (TABLE 9)) was “remained largely in oxidized forms”, the “conversion into colored formazan dyes in assay buffer containing 1-methoxy PMS” value [7] was “slowly catalyze the conversion of tetrazolium salts into colored formazan dyes” and the “Absorbance, formation” value [8] was 1.51 and 1.56 and 1.61 and 1.67 and 1.80 and 1.94 and 2.02 and 2.15. The “Absorbance, formation” value ([9]; 0 h) was 0.41, the “Absorbance, formation” value ([9]; 1 h) was 0.49 and the “Absorbance, formation” value ([9]; 2 h) was 0.52. For the same compound, the “Absorbance, formation” value ([9]; 3 h) was 0.54, the “Absorbance, formation” value ([9]; 4 h) was 0.54 and the “Absorbance, formation” value ([9]; 6 h) was 0.60. The “Absorbance, formation” value ([9]; 8 h) was 0.63, the “Absorbance, formation” value ([9]; 10 h) was 0.64 and the “Absorbance, formation” value ([9]; 12 h) was 0.67. The “Formation … Means 0 h” value ([10]; 0 h) was 1.95, the “Formation … Means 1 h” value ([10]; 1 h) was 2.20 and the “Formation … Means 2 h” value ([10]; 2 h) was 2.18. The “Formation … Means 3 h” value ([10]; 3 h) was 2.17, the “Formation … Means 4 h” value ([10]; 4 h) was 2.23 and the “Formation … Means 6 h” value ([10]; 6 h) was 2.28. The “Formation … Means 8 h” value ([10]; 8 h) was 2.33, the “Formation … Means 10 h” value ([10]; 10 h) was 2.41 and the “Formation … Means 12 h” value ([10]; 12 h) was 2.45. For the same compound, the “Absorbance, formation” value [11] was 0.61 and 0.72 and 0.80 and 0.82 and 0.84 and 0.85 and 0.91 and 0.93, the “Means absorbance 0 h” value [12] was 0.42 and the “Means absorbance 1 h” value [12] was 0.48. The “Means absorbance 2 h” value [12] was 0.53, the “Means absorbance 3 h” value [12] was 0.59 and the “Means absorbance 4 h” value [12] was 0.60. For the same compound, the “Means absorbance 6 h” value [12] was 0.77, the “Means absorbance 8 h” value [12] was 0.91 and the “Means absorbance 10 h” value [12] was 1.03. For the same compound, the “Means absorbance 12 h” value [12] was 1.17, the “Formation … Means 0 h” value ([13]; 0 h) was 2.22 and the “Formation … Means 1 h” value ([13]; 1 h) was 2.35. For the same compound, the “Formation … Means 2 h” value ([13]; 2 h) was 2.36, the “Formation … Means 3 h” value ([13]; 3 h) was 2.32 and the “Formation … Means 4 h” value ([13]; 4 h) was 2.40. For the same compound, the “Formation … Means 6 h” value ([13]; 6 h) was 2.39, the “Formation … Means 8 h” value ([13]; 8 h) was 2.45 and the “Formation … Means 10 h” value ([13]; 10 h) was 2.45. The “Formation … Means 12 h” value ([13]; 12 h) was 2.46.
